Results taken from US20250090875A9, “IMMUNOSTIMULATORY COMPOUNDS AND CONJUGATES” (Seagen Inc., priority 2021, published 2025).
pEC50: −log10 of the molar value.

What was measured:
CT26 tumors = type: in vivo; details: targeted ADC, intraperitoneal, every 7 days, 3 doses
Excerpt: This example covers in vivo assessments of anti-tumor activity of ADCs with TLR7/8 agonists. An in vivo syngeneic system was used to assess the ability of the ADCs having TLR ⅞ agonists as the payload to induce immune responses and drive an anti-tumor immune response using a subcutaneous, heterotopic mouse colon carcinoma model (a CT26 system). Female Balb/c mice were implanted with 1×10^5 CT26 cells sub-cutaneously in the flank on day 0. When mean tumor size of 100 mm^3 (measured using the formula: Volume (mm^3)=0.5*Length*Width^2 where length is the longer dimension) was reached, the mice were randomized into treatment groups of 6 mice per group. Animals were then treated intraperitoneally with the indicated treatment every 7 days, for 3 doses total. Stock concentrations of the ADCs were diluted to the appropriate concentration and injected into animals in 100 μL volumes. Tumor length and width and mouse weights were measured throughout the study and tumor volume was calculated using the formula above. Animals were followed until tumor volume reached 1000 mm^3, when animals were then euthanized.

MC38 tumors = experiment: MC38 colon tumor model in C57BL/6 mice; type: in vivo, mouse; details: ADC, carboxylic acid vs methyl ester payload, FIG. 12
Protocol: The activity of several conjugated TLR7/8 molecules in both methyl ester and carboxylic acid forms were also assessed in another colon tumor model, MC38. Results of this analysis are summarized in FIG. 12, which the top panel summarizing tumor volume and the bottom panel providing percent survival across 9 treatment groups. […] However, the increase in anti-tumor activity of the carboxylic acid version of the ADC was much more pronounced in this model for the S18a (methyl ester) or S18b (carboxylic acid) TLR7/8 agonist.
To assess if the small molecule and conjugated agonist are specific for the toll like 7 and/or 8 receptors, various small molecules and ADCs were tested on TLR7 receptor knockout animals. As TLR8 is normally nonfunctional in mice, in TLR7−/− mice there is a total loss of ability to respond to compounds that work through these receptors. To assess whether compounds are TLR7/8 specific, MC38 tumors were implanted into either wild type C57B1/6 mice or cognate TLR7−/− mice. When tumors reached ˜50 mm3 mice animals were treated q7dx3 with vehicle (PBS), 1 mg/kg of the free small molecule S18a, the isotype/non-targeted ADC with cmpd 9 or with an immune cell targeted version of the cmpd 9 IDC.

primary human PBMCs = experiment: Cytokine induction in primary human PBMCs by small molecule TLR7/8 agonists (Luminex); type: cell-based; details: free drug; for IFNα, IL1β, MIP1β, TNFα induction, C7 carboxylic acid vs parent C7 methyl ester: FIG. 3; for MIP1β and TNFα responses: FIG. 4, compared with Resiquimod or methyl ester counterpart
Protocol: This example covers dose dependent human immune cell activation by small molecule TLR7/8 agonists. Primary human PBMCs were isolated from peripheral whole blood from human donors and were subjected to treatment with increasing concentrations of the agonists diluted in PBS. Cell culture supernatants were harvested 24 h after treatment and analyzed for induction of cytokines via multiplex ELISAs (Luminex).
Several small molecule TLR7/8 agonists were assessed for their ability to activate human immune cells in a dose dependent manner. Primary human PBMCs were isolated from peripheral whole blood from human donors and were subjected to treatment with increasing concentrations of the agonists diluted in PBS. 24 h after treatment cell culture supernatants were harvested and analyzed for induction of cytokines via multiplex ELISAs (Luminex).

human immune cells = experiment: Cytokine induction in human immune cells by TLR7/8 agonist-antibody conjugates (Luminex); type: cell-based; details: ADC with immune-targeting antibody, FIGS. 6, 7, 8
Protocol: Cells were stimulated with the various TLR7/8 agonist-antibody conjugates at different concentrations, and resulting supernatants were harvested and analyzed using a multiplex analyte kit (Luminex).
Immune cells were treated with 5 μg/mL of an immune-targeting antibody, TLR agonist compounds, and antibody conjugated with different TLR agonist compounds (to thereby form ADCs with average drug:antibody ratios of about 8). FIG. 6 summarizes MIP1β (left panel) and TNFα (right panel) responses generated by untreated immune cells, a TLR agonist coupled to a non-targeting antibody (‘Non-targeted’), and TLR agonist compounds conjugated with immune-targeted antibodies (‘targeted cmpd’ 1-7). […] Targeted compounds 2, 4, 5, and 7 correspond to C7 carboxymethylated imidazoquinoline compounds coupled to immunostimulatory antibodies by cleavable linkers. Targeted compounds 3 and 6 correspond to C7 carboxylated imidazoquinoline compounds coupled to immunostimulatory antibodies by cleavable linkers. FIG. 7 provides dose-dependent IL12p40 (left panel) and IL1β (right panel) responses generated with non-targeted (i.e., coupled to an isotype antibody) and immune targeting antibody conjugated compounds, with ‘cmpd 9’ corresponding to a C7 carboxylated imidazoquinoline compound and ‘cmpo10’ corresponding to its C7 carboxymethyl analogue. FIG. 8 provides dose-dependent interleukin 6 (IL6, left panel) and TNFα (right panel) responses with ADCs comprising immune cell targeting antibodies coupled to either C7 carboxylated (cmpd 3, 8, 9) or C7 carboxymethylated (cmpd 4, 7, 10) imidazoquinoline compounds.
In order to ascertain whether the difference in activity of the N1 vs. C4 linked conjugates seen in the Renca model was due to variable potency, a dose range experiment was performed. The N1 and C4 linked targeted (ADC) and non-targeted conjugates were administered in a wide dose range (0.001 to 10 μg/mL) to exogenously derived human immune cells. […] Supernatants were harvested and analyzed using a multiplex analyte kit (Luminex).

[1] = SEC analysis of ADC aggregation (high molecular weight species) in plasma; type: physicochemical; details: ADC incubated with human or mouse plasma, FIG. 9
Protocol: Method I: Size-exclusion chromatography (SEC) was performed with a Waters ACQUITY UPLC system and an Acquity UPLC Protein BEH SEC Column, (200 Å, 1.7 μm, 4.6×150 mm, PN: 186005225). The mobile phase used was 7.5% isopropanol in 92.5% aqueous (25 mM sodium phosphate, 350 mM NaCl, pH 6.8), v/v. Elution was performed isocratically at a flow rate of 0.4 mL/min at ambient temperature.
To determine if any of these differences in activity potentially resulted from increases in aggregation as a subsequent result of changes in charge, SEC analysis was performed. ADCs containing either S18a (methyl ester) or S18b (carboxylic acid) were incubated with both human or mouse plasma and assessed for the formation of high molecular weight species (HMW) over time.

Renca tumors = experiment: Renca kidney carcinoma model in Balb/c mice; type: in vivo, mouse; details: ADC, q7dx3 from ~100 mm^3, FIG. 14
Protocol: The difference in anti-tumor activity of the S18a and S18b conjugates was also assessed in the Renca kidney model. In this model, mice bearing Renca tumors were treated q7dx3 when tumors reached ˜100 mm^3 as indicated, and followed for mean group tumor growth (FIG. 14, top) and survival (FIG. 14, bottom) over time.
This example covers cancer treatment with EphA2 targeted TLR agonists. […] Balb/c mice were implanted with Renca tumor cells and when cells reached 100 mm^3 they were treated Q7dx3 treatments with 2.4 mg/kg of the indicated IDC, either non targeting isotype or an EphA2 targeting mAb.

hTLR7 = molecular target: T1, hTLR7 (Homo sapiens, UniProt Q9NYK1); experiment: HEK Blue hTLR7 cell assay of free TLR7/8 agonists; type: cell-based; details: HEK Blue hTLR7 cells, free agonist
T1 construct: expressed in transfected cells; host or cells: HEK Blue hTLR7 cells
T1 sequence (Q9NYK1 27-1049): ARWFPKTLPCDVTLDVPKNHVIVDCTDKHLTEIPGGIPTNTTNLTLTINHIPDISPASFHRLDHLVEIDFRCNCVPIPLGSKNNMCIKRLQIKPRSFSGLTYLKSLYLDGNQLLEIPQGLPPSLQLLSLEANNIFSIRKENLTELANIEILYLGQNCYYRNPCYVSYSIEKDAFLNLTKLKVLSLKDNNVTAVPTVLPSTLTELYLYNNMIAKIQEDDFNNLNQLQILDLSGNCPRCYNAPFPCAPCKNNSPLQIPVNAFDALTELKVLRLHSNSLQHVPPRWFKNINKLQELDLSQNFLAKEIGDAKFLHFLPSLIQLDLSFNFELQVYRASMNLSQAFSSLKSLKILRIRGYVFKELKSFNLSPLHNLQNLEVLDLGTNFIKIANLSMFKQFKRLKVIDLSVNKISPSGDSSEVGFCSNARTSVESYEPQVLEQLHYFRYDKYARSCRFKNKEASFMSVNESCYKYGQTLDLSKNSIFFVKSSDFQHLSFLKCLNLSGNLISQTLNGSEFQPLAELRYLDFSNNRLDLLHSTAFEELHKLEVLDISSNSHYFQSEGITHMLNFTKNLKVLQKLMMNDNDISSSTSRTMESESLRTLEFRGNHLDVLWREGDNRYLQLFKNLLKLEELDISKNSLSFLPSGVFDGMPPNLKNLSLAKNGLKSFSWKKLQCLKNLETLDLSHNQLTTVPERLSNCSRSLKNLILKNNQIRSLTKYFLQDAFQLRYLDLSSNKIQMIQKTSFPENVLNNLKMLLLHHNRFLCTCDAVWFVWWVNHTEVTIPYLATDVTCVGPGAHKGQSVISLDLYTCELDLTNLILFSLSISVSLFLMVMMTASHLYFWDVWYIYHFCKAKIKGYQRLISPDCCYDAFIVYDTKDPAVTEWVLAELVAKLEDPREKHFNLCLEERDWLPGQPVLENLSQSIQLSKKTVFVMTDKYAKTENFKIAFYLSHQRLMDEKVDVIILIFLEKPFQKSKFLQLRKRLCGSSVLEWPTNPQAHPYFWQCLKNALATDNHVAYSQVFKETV
Protocol: This example covers toll-like receptor 7 (TLR7) and toll-like receptor 8 (TLR8) selectivity of imidazoquinoline agonists. Assessment of TLR7 and TLR8 selectivity for the free TLR7/8 agonists was performed using HEK Blue hTLR7 and hTLR8 cells over a large dose range of compounds. […] Activities were determined based on calculated EC50 (in μM) in each cell line, and are summarized in TABLE 4 below, with columns providing targets and rows providing compounds.

## CCCCc1nc2c(N)nc3cc(C(=O)O)ccc3c2n1Cc1ccc(CNC(=O)OCc2ccc(O[C@H]3O[C@H](CO)[C@@H](O)[C@H](O)[C@@H]3O)c(NC(=O)CCNC(=O)[C@H](CCCCNC(=O)CCOCCOCCOCCOCCOCCOCCOCCOCCOCCOCCOCCOC)NC(=O)CCN3C(=O)C=CC3=O)c2)cc1 [Compound 3, 4-amino-2-butyl-1-(4-(((((3-((S)-44-(3-(2,5-dioxo-2,5-dihydro-1H-pyrrol-1-yl)propanamido)-38,45-dioxo-2,5,8,11,14,17,20,23,26,29,32,35-dodecaoxa-39,46-diazanonatetracontan-49-amido)-4-(((2R,3S,4S,5S,6R)-3,4,5-trihydroxy-6-(hydroxymethyl)tetrahydro-2H-pyran-2-yl)oxy)benzyl)oxy)carbonyl)amino)methyl)benzyl)-1H-imidazo[4,5-c]quinoline-7-carboxylic acid]
CT26 tumors
  tumor growth delay and survival: profound tumor growth delay
MC38 tumors
  tumor growth delay and survival: slight increased survival advantage

## CCCCc1nc2c(N)nc3cc(C(=O)O)ccc3c2n1Cc1ccc(CN)cc1 [S8b, 4-amino-1-(4-(aminomethyl)benzyl)-2-butyl-1H-imidazo[4,5-c]quinoline-7-carboxylic acid]
Primary human PBMCs
  IFNα, IL1β, MIP1β, TNFα induction, C7 carboxylic acid vs parent C7 methyl ester: markedly lower potency and activity than its corresponding parent methyl ester compound
  MIP1β and TNFα responses: lower activities than their methyl ester counterparts
Human immune cells
  potency at activating immune cells vs methyl ester analogues: just as, if not more potent at activating immune cells than their methyl ester analogues

## CCCCc1nc2c(N)nc3cc(C(=O)O)ccc3c2n1CCN [S11b]
Primary human PBMCs
  IFNα, IL1β, MIP1β, TNFα induction, C7 carboxylic acid vs parent C7 methyl ester: markedly lower potency and activity than its corresponding parent methyl ester compound
  MIP1β and TNFα responses: lower activities than their methyl ester counterparts
Human immune cells
  potency at activating immune cells vs methyl ester analogues: just as, if not more potent at activating immune cells than their methyl ester analogues

## CCCCc1nc2c(N)nc3cc(C(=O)O)ccc3c2n1Cc1ccc(CN(C)C)cc1 [S18b]
[1]
  aggregation (formation of high molecular weight species over time): no significant difference in the amounts of aggregation
Human immune cells
  potency at activating immune cells vs methyl ester analogues: just as, if not more potent at activating immune cells than their methyl ester analogues
Renca tumors
  tumor growth and survival: very good tumor growth delay and superior overall survival advantage
MC38 tumors
  tumor growth delay and survival: distinct tumor growth delay and overall survival benefit

## CCCCc1nc2c(N)nc3cc(C(=O)OC)ccc3c2n1CCc1ccc(CN)cc1 [S76a]
hTLR7
  pEC50: 5.46

## CCCCc1nc2c(N)nc3cc(C(=O)OC)ccc3c2n1CCCCCN(C)C [S77a]
hTLR7
  pEC50: 5.55

## COCCc1nc2c(N)nc3cc(C(=O)OC)ccc3c2n1Cc1ccc(CN)cc1 [S78a]
hTLR7
  pEC50: 5.42
